According to publication PMC9786103, “Potent and Selective Inhibition of CYP1A2 Enzyme by Obtusifolin and Its Chemopreventive Effects” (Pharmaceutics, 2022):
Where two headings read alike, the source gives them in different places.

Legend:
[1] = read-out: Maximum concentration (Cmax) of obtusifolin in rat blood, cited from earlier work
other P450s = test: Inhibition of other P450s in human liver microsomes (summary); assay type: biochemical; details: HLMs, P450s other than CYP1A2; read-out: IC50 against other P450s
Description: The inhibitory potential of obtusifolin against the biotransformation of eight P450 probe substrates was examined using previously reported methods with slight changes [21, 22]. The following P450 isoform-specific substrates were used: coumarin (CYP2A6); bupropion (CYP2B6); amodiaquine (CYP2C8); tolbutamide (CYP2C9); omeprazole (CYP2C19); dextromethorphan (CYP2D6); chlorzoxazone (CYP2E1); and midazolam (CYP3A). Mixtures of pooled HLM, P450 substrates, and obtusifolin (0, 0.05, 0.2, 0.5, 2, 5, or 10 µM for CYP1A2; and 0, 0.5, 2, 5, 20, or 50 µM for the other P450 isoforms) were pre-incubated (5 min, 37 °C). NGS was introduced to start the reaction, which was followed by an additional incubation (15 min). Following reaction termination, aliquots of the supernatants were analyzed with LC-MS/MS.

rCYP1A1 [2] = target: T1, rCYP1A1 (Homo sapiens, UniProt P04798); test: Phenacetin O-deethylation (POD) in recombinant CYP1A1; assay type: biochemical
T1 construct: purchased SPMED (Busan, Republic of Korea)
T1 sequence (P04798 1-512): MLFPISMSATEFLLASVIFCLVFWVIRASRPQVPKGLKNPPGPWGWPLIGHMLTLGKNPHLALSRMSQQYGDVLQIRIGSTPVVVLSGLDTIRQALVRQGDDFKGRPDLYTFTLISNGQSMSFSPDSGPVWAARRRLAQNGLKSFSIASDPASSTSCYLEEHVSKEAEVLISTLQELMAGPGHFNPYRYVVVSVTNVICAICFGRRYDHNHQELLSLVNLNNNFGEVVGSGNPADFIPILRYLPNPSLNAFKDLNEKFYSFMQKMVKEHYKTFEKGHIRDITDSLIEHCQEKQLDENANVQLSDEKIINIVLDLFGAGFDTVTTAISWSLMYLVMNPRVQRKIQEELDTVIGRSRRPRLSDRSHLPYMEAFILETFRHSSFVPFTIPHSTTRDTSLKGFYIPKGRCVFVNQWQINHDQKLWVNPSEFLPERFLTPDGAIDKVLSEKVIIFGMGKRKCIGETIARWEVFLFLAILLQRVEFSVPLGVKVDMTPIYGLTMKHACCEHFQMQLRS

CYP2E1 = target: T2, CYP2E1 (Homo sapiens, UniProt P05181); test: biochemical; assay type: biochemical
T2 construct: Mixtures of pooled HLM, P450 substrates, and obtusifolin; tissue XenoTech XTreme 200; host or cells: pooled human liver microsomes
T2 sequence (P05181 whole entry): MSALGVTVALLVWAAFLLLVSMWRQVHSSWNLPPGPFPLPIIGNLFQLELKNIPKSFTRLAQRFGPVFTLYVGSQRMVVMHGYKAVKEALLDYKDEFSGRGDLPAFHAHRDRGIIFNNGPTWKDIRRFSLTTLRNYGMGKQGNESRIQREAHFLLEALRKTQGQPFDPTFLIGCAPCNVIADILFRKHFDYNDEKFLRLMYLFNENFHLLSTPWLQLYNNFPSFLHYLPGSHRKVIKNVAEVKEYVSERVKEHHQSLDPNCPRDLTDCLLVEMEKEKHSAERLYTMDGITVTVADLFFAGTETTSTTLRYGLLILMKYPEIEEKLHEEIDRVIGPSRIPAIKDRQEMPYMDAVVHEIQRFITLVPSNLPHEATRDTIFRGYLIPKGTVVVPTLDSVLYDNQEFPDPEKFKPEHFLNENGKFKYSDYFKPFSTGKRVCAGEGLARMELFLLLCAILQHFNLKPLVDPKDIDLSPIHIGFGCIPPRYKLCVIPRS
Method: (§2) The following P450 isoform-specific substrates were used: coumarin (CYP2A6); bupropion (CYP2B6); amodiaquine (CYP2C8); tolbutamide (CYP2C9); omeprazole (CYP2C19); dextromethorphan (CYP2D6); chlorzoxazone (CYP2E1); and midazolam (CYP3A). […] NGS was introduced to start the reaction, which was followed by an additional incubation (15 min). Following reaction termination, aliquots of the supernatants were analyzed with LC-MS/MS.
(§3) Reverse phase column (Kinetex XB-C18, 100 × 2.10 mm; Phenomenex, Torrance, CA, USA) and triple-quadrupole mass spectrometer (LCMS 8060, Shimadzu, Kyoto, Japan) with an ultra high-performance LC system (Nexera X2, Shimadzu) analyze all the metabolites. […] For each metabolite, quantitation was carried out in selected reaction monitoring (SRM) mode using the following precursor-to-product ion transition: m/z 152 > 110 for acetaminophen (CYP1A2), m/z 214 > 186 for resorufin (CYP1A1 and CYP1A2), m/z 163 > 107 for 7-hydroxycoumarin (CYP2A6), m/z 256 > 238 for 6-hydroxybupropion (CYP2B6), m/z 328 > 283 for N-desethylamodiaquine (CYP2C8), m/z 287 > 89 for 5-hydroxytolbutamide (CYP2C9), m/z 362 > 214 for 4-hydroxyomeprazole (CYP2C9), m/z 258 > 157 for dextrorphan (CYP2D6), m/z 184 > 120 for 6-hydroxychlorzoxazone (CYP2E1), m/z 342 > 203 for 1′-hydroxymidazolam (CYP3A), and m/z 295 > 100 for trimipramine (IS) [23, 24].

CYP2C9 = target: T3, CYP2C9 (Homo sapiens, UniProt P11712); test: Tolbutamide 4-hydroxylation in human liver microsomes; assay type: biochemical; details: HLMs
T3 construct: Mixtures of pooled HLM, P450 substrates, and obtusifolin; tissue XenoTech XTreme 200; host or cells: pooled human liver microsomes
T3 sequence (P11712 whole entry): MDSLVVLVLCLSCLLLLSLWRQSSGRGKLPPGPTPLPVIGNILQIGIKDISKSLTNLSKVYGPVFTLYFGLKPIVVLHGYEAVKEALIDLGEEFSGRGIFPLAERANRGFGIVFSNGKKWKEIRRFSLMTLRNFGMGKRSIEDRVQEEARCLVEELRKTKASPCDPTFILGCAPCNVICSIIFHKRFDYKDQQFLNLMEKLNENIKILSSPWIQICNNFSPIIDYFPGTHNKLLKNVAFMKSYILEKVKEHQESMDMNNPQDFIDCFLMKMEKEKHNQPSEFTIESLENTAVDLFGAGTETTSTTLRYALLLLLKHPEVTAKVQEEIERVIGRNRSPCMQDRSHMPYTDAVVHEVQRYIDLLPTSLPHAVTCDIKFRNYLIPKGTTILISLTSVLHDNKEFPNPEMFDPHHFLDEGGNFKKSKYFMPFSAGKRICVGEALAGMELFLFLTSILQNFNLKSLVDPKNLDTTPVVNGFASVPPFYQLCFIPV
Method: as §2, §3

CYP2C8 = target: T4, CYP2C8 (Homo sapiens, UniProt P10632); test: Amodiaquine N-deethylation in human liver microsomes; assay type: biochemical; details: HLMs
T4 construct: Mixtures of pooled HLM, P450 substrates, and obtusifolin; tissue XenoTech XTreme 200; host or cells: pooled human liver microsomes
T4 sequence (P10632 1-490): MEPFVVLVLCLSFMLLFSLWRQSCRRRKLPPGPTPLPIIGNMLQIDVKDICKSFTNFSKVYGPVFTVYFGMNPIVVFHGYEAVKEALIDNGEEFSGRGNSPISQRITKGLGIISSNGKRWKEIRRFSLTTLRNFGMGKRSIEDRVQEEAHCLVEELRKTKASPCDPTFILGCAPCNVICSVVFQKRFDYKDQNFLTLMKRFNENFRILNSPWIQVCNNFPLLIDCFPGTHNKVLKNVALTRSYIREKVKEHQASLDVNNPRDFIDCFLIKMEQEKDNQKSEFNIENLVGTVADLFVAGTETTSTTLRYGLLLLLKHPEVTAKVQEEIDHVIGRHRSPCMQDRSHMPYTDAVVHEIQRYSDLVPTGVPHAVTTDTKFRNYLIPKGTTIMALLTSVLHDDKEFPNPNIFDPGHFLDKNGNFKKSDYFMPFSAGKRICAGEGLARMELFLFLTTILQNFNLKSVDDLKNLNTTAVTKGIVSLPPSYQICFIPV
Method: as §2, §3

CYP2C19 = target: T5, CYP2C19 (Homo sapiens, UniProt P33261); test: Omeprazole 4-hydroxylation in human liver microsomes; assay type: biochemical; details: HLMs
T5 construct: Mixtures of pooled HLM, P450 substrates, and obtusifolin; tissue XenoTech XTreme 200; host or cells: pooled human liver microsomes
T5 sequence (P33261 whole entry): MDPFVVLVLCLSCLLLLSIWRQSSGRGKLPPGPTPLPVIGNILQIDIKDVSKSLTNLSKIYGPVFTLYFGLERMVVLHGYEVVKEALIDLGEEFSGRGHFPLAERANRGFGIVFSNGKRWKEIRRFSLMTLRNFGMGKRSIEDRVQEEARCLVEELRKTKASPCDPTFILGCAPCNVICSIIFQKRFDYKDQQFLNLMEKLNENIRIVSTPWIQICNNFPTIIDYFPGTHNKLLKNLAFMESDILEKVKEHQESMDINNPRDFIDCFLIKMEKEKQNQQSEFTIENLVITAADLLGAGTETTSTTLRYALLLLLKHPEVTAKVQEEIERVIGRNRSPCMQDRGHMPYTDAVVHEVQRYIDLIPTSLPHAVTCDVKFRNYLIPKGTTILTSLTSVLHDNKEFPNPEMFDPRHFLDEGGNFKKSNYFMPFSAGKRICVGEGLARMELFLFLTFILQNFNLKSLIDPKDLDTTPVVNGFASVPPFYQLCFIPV
Method: as §2, §3

CYP1A2 = target: T6, CYP1A2 (Homo sapiens, UniProt P05177); test: Kinetic characterization of inhibition of CYP1A2-mediated POD in human liver microsomes; assay type: biochemical; set-up: tissue XenoTech XTreme 200; host or cells: pooled human liver microsomes; details: HLMs; for Type of inhibition of CYP1A2-mediated POD: Lineweaver-Burk and Dixon plots
T6 sequence (P05177 1-516): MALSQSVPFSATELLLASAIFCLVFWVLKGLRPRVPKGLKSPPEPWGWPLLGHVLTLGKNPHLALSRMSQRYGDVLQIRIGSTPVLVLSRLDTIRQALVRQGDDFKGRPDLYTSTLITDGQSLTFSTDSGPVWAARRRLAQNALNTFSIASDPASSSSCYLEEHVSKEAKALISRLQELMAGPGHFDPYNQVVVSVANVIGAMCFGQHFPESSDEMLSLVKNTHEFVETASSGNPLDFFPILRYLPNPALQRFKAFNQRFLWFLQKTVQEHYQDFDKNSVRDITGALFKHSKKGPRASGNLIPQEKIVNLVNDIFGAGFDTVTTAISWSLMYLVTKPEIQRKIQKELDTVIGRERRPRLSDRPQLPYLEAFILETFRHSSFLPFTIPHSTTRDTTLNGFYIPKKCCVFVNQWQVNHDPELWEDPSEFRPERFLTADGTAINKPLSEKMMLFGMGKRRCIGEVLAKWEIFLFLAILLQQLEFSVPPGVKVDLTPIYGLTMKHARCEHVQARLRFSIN
Description: The other conditions were similar to those used in the P450 inhibition study, as described earlier.
WinNonlin software (Pharsight, Mountain View, CA, USA) was used to calculate IC50 values. Based on Lineweaver–Burk double reciprocal plots, secondary plots of Lineweaver–Burk plots versus obtusifolin concentrations, and visual inspection of Dixon plots, the type of inhibition and apparent kinetic parameters for inhibitory activity (Ki) were estimated.

rCYP1A2 = target: T7, rCYP1A2 (Homo sapiens, UniProt P05177); test: Ethoxyresorufin O-deethylation (EROD) in recombinant CYP1A2; assay type: biochemical; details: rCYP1A2 10 pmol/mL, 7-ethoxyresorufin 2 µM, 20 min; read-out: IC50, CYP1A2-mediated EROD
T7 construct: purchased SPMED (Busan, Republic of Korea)
T7 sequence (P05177 1-516): T6 sequence (P05177 1-516)
Method: (§1) The inhibitory effects of obtusifolin on the CYP1A-mediated ethoxyresorufin O-deethylation (EROD) activity of rCYP1A1 and rCYP1A2 enzymes (10 pmol/mL) were investigated. […] The other conditions, except for the incubation time (20 min), were similar to those used in the P450 inhibition study, as described earlier.

rCYP1A1 [3] = target: T1, rCYP1A1; test: Ethoxyresorufin O-deethylation (EROD) in recombinant CYP1A1; assay type: biochemical; details: rCYP1A1 10 pmol/mL, 7-ethoxyresorufin 2 µM, 20 min; read-out: IC50, CYP1A1-mediated EROD
Method: as §1

- IC50 (other P450s): > 28.6 µM
- Selectivity for rCYP1A1 over rCYP1A2 (rCYP1A1 [2]; CYP1A-mediated POD activity): over six-fold
- IC50 (rCYP1A1 [2]; substrate phenacetin (POD)): 0.06 ± 0.02 µM
- IC50 (CYP2E1): > 50 µM
- inhibition at 15 min, 0.5 µM (CYP2E1; human, microsomes): 30.7%
- IC50 (CYP2C9): 28.6 µM
- IC50 (CYP2C8): 31.4 µM
- IC50 (CYP2C19): > 50 µM
- Ki (CYP1A2; phenacetin 20, 50, 100 µM, read-out: Ki, CYP1A2-mediated phenacetin O-deethylation): 0.11 ± 0.02 µM
- Type of inhibition of CYP1A2-mediated POD (CYP1A2): competitive
- Type of inhibition of CYP1A2-mediated POD (CYP1A2; listed as obtusifolin): competitive inhibition
- IC50 (rCYP1A2): 0.57 ± 0.11 µM
- IC50 (rCYP1A1 [3]): 0.39 ± 0.06 µM
Structure (SMILES): COc1c(O)c(C)cc2c1C(=O)c1c(O)cccc1C2=O [Obtusifolin, obtusifolin]
- Cmax ([1]; single oral Semen Cassiae extracts 1.25 g/kg (5.01 mg/g obtusifolin)): 860 nM
- Cmax ([1]; single oral obtusifolin 1.3 mg/kg): 540 nM
